Results on seven compounds are retold here after ChEMBL document CHEMBL1821646, “Design and synthesis of a biotinylated probe of COX-2 inhibitor nimesulide analog JCC76” (Bioorg Med Chem Lett, 2011).

The structures appear in SMILES notation. pIC50: −log10 of the molar value.

For the first data set, the system named is SK-BR-3. The data set can be described thus: Antiproliferative activity against human SKBR3 cells after 48 to 72 hrs by MTT assay. In kind it is functional, cell-based.
Conditions: not given
Background: Tetrazolium dyes change colour on reduction, which living cells bring about.
`Cc1ccc(C)c(COc2cc(NC(=O)C3CCCCC3)ccc2NS(C)(=O)=O)c1` gave a pIC50 of 4.08.

For the compound `CCCCCCN(c1ccc(NC(=O)C2CCCCC2)cc1OCc1cc(C)ccc1C)S(C)(=O)=O`, the pIC50 was 4.09. Still for that read-out and setting: in the case of `COCCOCCN(c1ccc(NC(=O)C2CCCCC2)cc1OCc1cc(C)ccc1C)S(C)(=O)=O` it was 4.89. On the same count and under the same terms, as for `CCCCCC(=O)NCCCCCCN(c1ccc(NC(=O)C2CCCCC2)cc1OCc1cc(C)ccc1C)S(C)(=O)=O`, the figure is 5.22. Still for that read-out and setting: as for `Cc1ccc(C)c(COc2cc(NC(=O)C3CCCCC3)ccc2N(CCCCCCNC(=O)c2ccc3ccccc3c2)S(C)(=O)=O)c1`, the figure is 4.34; as for `Cc1ccc(C)c(COc2cc(NC(=O)C3CCCCC3)ccc2N(CCCCCCNC(=O)CCCC[C@H]2SC[C@H]3NC(=O)N[C@H]32)S(C)(=O)=O)c1`, 5.66.

The next data set concerns SK-BR-3. The experiment in a line: Antiproliferative activity against human SKBR3 cells at 100 uM after 48 to 72 hrs by MTT assay. It is filed as cell-based. The settings on record: sk-br-3, 100 µM.
As for `O=C(O)CCCC[C@@H]1SC[C@@H]2NC(=O)N[C@@H]21` [BIOTIN], the Activity entry is “Non-toxic”.

By pIC50 is commonly meant −log10 of the IC50, conventionally taken in molar units. Low readings indicate a large IC50, high ones a small IC50.
